Experimental data: patent US20230346820A1, “METHODS AND COMPOSITIONS FOR THE TREATMENT OF SARS-COV-2” (priority 2020, published 2023)
Read-outs that look alike come from different tables or passages of the source.

Columns and labels:
SARS-CoV-2 [1] = test: microbe, parasite or virus in culture; details: Severe acute respiratory syndrome coronavirus 2, HeLa-ACE2, read-out: HeLa-ACE2 CoV-2 EC50 [μM], Table 4; aggregated data, Geomean, n = 3
SARS-CoV-2 [2] = details: Table 4
in vitro [3] = details: human
SARS-CoV-2 [4] = details: Table 4; remark: listed apart in the source
SARS-CoV-2 [5] = test: microbe, parasite or virus in culture; details: Severe acute respiratory syndrome coronavirus 2, Calu-3, 48 h, read-out: Calu-3 CoV-2 EC50 [μM]
in vitro [6] = details: human, HeLa-ACE2 Uninfected Tox CC50 [μM], Table 4; aggregated data, Geomean, n = 3

Compound	EC50 (SARS-CoV-2 [1]) [µM]	HeLa-ACE2 SI CC50/CoV-2 EC50 (SARS-CoV-2 [2])	CC50 (in vitro [3]) [µM]	Calu3 SI CC50/CoV-2 EC50 (SARS-CoV-2 [4])	EC50 (SARS-CoV-2 [5]) [µM]	CC50 (in vitro [6]) [µM]
CC[C@H]1CN2CCc3cc(OC)c(OC)cc3[C@@H]2C[C@@H]1C[C@H]1NCCc2cc(OC)c(OC)cc21 [Emetine]	0.06	5.66	8.87	19.97	0.444	0.34
O=c1[nH]c(=O)n([C@@H]2O[C@H](CO)[C@@H](O)[C@H]2O)cc1F [Analog of OGT-719]	4.02	0.03	8.73	7.44	1.17	0.109
CC1OC(O[C@H]2CC[C@@]3(C=O)[C@H](CC[C@@H]4[C@@H]3CC[C@]3(C)[C@@H](C5=CC(=O)OC5)CC[C@]43O)C2)C(O)C(O)C1O (some centres unmarked) [Peruvoside (analog)]	0.246	1.40	1.41	5.61	0.251	0.345
COC1CC(OC2CCC3(C=O)[C@H]4CCC5(C)C(C6=CC(=O)OC6)CCC5(O)[C@@H]4CCC3(O)C2)OC(C)C1O (some centres unmarked) [CYMARINE]	0.237	1.21	5.87	43.53	0.135	0.287
CCCCCCC1C(=O)O[C@H](C)[C@H](NC(=O)c2cccc(NC=O)c2O)C(=O)O[C@@H](C)[C@@H]1OC(=O)CC(C)C (some centres unmarked) [Antimycin A]	> 9.59		0.608	22.00	0.028	> 39.8
C#C[C@]1(O)CC[C@H]2[C@@H]3CCc4cc(OS(=O)(=O)C(C)C)ccc4[C@H]3CC[C@@]21C [ethinyl estradiol sulfonate]	> 9.59		6.86	5.59	1.23	20.4
O=C(c1ccccc1)c1cccc(NC(=O)c2ccn3c2CSC3c2cccnc2)c1 (centres unmarked) [TULOPAFANT]	> 9.59		14.6	5.01	2.92	36.6
CSc1ccc(CN2CCCC(Nc3ccc4[nH]ncc4c3)C2)cc1 (centres unmarked) [INS-117548]		4.15	> 29.9	>8.42	> 3.55	> 39.8
CCCCCCCC/C=C/CCCCCCCC(=O)OC[C@H]1O[C@@H](n2ccc(N)nc2=O)C(F)(F)[C@@H]1O [Gemcitabine elaidate]	> 9.59		> 29.9	>92	0.324	6.01
CC(C)(O)c1ccccc1-c1ccc2[nH]c(/C=C/c3ccc(C(F)(F)F)cc3)nc2c1 [Mavatrep]	> 9.59		14.6	5.50	2.66	22.5
O=C(Nc1ccc(Cl)c(S(=O)(=O)N2CCNCC2)c1O)Nc1cccc(F)c1Cl [Elubrixitosylate]		4.35	> 29.6	>4.28	6.91	> 39.8
CC[C@@H]1/C=C/C=C/C[C@H](C)[C@@H](O)[C@](C)(O)C(=O)[C@H](C)[C@@H](O)[C@H](C)C(=O)[C@H](C)[C@@H](O)[C@H](C)/C=C/C(=O)O[C@H]2[C@@H](C)[C@@H](CC1)O[C@@]1(CC[C@@H](C)[C@@H](C[C@H](C)O)O1)[C@@H]2C [OLIGOMYCINA]	> 9.59		> 29.9	>4000	0.007	36
CC(N)c1ccc(C(=O)Nc2ccncc2)cc1-c1ccc(F)cc1 (centres unmarked) [AMA-0076]	> 9.59		> 29.9	>16	3.87	35.8
N#Cc1cccc(C(C(=O)NCC(c2ccccc2)c2ccccc2)N(CCc2c[nH]cn2)C(=O)c2ccccc2C(=O)c2ccccc2)c1 (centres unmarked) [GENZ-29155]		4.01	> 29.9	>6.41	> 4.66	> 38.5
